A short description of the data set: Laser-capture microdissection and LC/MS-MS drug quantification in liver lesions and surrounding tissue, mouse IAC model. The class given is in vivo. As to conditions: for concentration at 24 h / concentration at 6 h: female, CD1, mouse, in vivo, 5 mg/kg; for concentration at 6 h: 6 hours post-dose. How it is done: A mouse model of IAC was used for this study. Female six to eight week old CD1 mice (Charles River Laboratories) weighing 18-22 g were infected intraperitoneally (IP) with 1×10^7 CFU of C. albicans SC5314 mixed with sterile stool matrix as previously described. […] Mice were sacrificed just before antifungal treatment (n=1), and at 1, 3, 6, 24, and 48 hours post-dose (three mice per group per time point). Livers and kidneys were explored for abscesses >1 mm in diameter, dissected, placed on a cryohistology tray, and snap-frozen in liquid nitrogen and stored at −80° C. for tissue sectioning for MALDI imaging.
In a further experiment, a low dose of CD101 at 5 mg/kg was administered and micafungin was given at the same dose. Liver and kidney samples were collected at 6 hours and 24 hours post-dose for both MALDI imaging and absolute drug quantification.
In another separate experiment that aimed at comparing therapeutic level of single dose CD101 and multiple doses of micafungin, a single dose of CD101 at 20 mg/kg was given at day three post-inoculation, and once daily treatment of micafungin at 5 mg/kg starting from day three post-inoculation and a total of three doses of micafungin was administered. Livers and kidneys were collected at 48 hours and 72 hours post first dose of each drug.
Laser-capture microdissection. Necrotic lesion and surrounding tissue areas totaling two to […] were dissected from between three and six serial liver or kidney biopsy tissue sections using a Leica LMD6500 system (Buffalo Grove, Ill.). Lesion areas were identified optically from the brightfield image scan and by comparison to the adjacently-sectioned H&E reference tissue. Pooled dissected lesion tissues were collected into 0.25 ml standard PCR tubes and immediately transferred to the −80° C. freezer for storage.
Prior to analysis, the tubes were thawed at room temperature for 30 minutes. 50 μl of extraction solution (ACN/MeOH (1/1) with 100 ng/ml CD101-D9 and 100 ng/ml ^13C6-micafungin) was added to each tube, which were then sonicated for five min and centrifuged at 10000 RPM for five min at room temperature. 40 μl of supernatant was transferred for LC/MS-MS analysis and diluted with an additional 40 μl of MilliQ water.
Neat 1 mg/ml DMSO stocks for all compounds were serial diluted in 50/50 acetonitrile water to create standard curves and quality control spiking solutions. 3 μl of neat spiking solutions were added to 2 μl of lesion homogenate and extraction was performed by adding 50 μl of extraction solution (ACN/MeOH (1/1) with 100 ng/ml CD101-D9 and 100 ng/ml ^13C6-micafungin). Extracts were vortexed for five minutes and centrifuged at 10000 RPM for five min. A 40 μl of supernatant was transferred for LC/MS-MS analysis and diluted with an additional 40 μl of MilliQ water. Previously optimized LC/MS-MS parameters were used for analysis (see LC/MS-MS section).
LC-MS analysis was performed on a Q Exactive high resolution mass spectrometer (Thermo Fisher Scientific, Waltham, Mass.) coupled to a Thermo Scientific Dionex UltiMate 3000 binary system. Chromatography was performed with a Kinetex C18 column (2.1×50 mm; particle size 1.7 μm, Phenomenex, Torrance, Calif.) using a reverse phase gradient elution, ACN:H2O (60:40) and 10 mM ammonium acetate for mobile phase A and IPA:ACN:MeOH (80:10:10) and 10 mM ammonium acetate for mobile phase B. A flow rate of 300 μl/min was used, with a gradient consisting of 20% B held for 0.5 min, followed by linear increase to 95% in 3.5 min, held for 2.2 min and return to the initial 20% B in 0.3 min. The column was equilibrated for 1.5 min before the next injection, and the temperature of column and sample tray were held at 50 and 4° C., respectively. The column retention time for CD101 and micafungin was 3.32 min and 3.2 min respectively.
Key MS parameters were as follow: the spray voltage, 3.5 kV; capillary temperature, 320° C.; HESI probe temperature, 400° C.; S-lens RF level, 50. […]

Like-named read-outs stand apart in the source and are kept apart here. Numbered stars: 1 amine (or outer) side, 2 acyl side, 3 side chain; on linkers, the order of the positions; unused ones are H or OH. Bridge positions count the residues as written; N and C are the ends. Square brackets hold non-standard residues; d marks the D form. Peptide text beside a SMILES is read from it. * marks the point of attachment. hTyr(3S-OH,4S-OH,3'-OSO3H) = N[C@H](C(=O)O)[C@H](O)[C@@H](O)c1ccc(O)c(OS(=O)(=O)O)c1; Orn(4R-OH,5R-OH) = O=C([C@H](C[C@@H](O)[C@@H](O)N[*:3])N[*:1])[*:2]; Pro(3S-OH,4S-Me) = C[C@H]1CN[C@H](C(=O)O)[C@H]1O; X1 = CCCCCOc1ccc(-c2cc(-c3ccc(C(=O)*)cc3)no2)cc1; Gln(3R-OH) = NC(=O)C[C@@H](O)[C@H](N)C(=O)O; Hyp = O=C(O)[C@@H]1C[C@@H](O)CN1

This note sets out measurements from patent publication US20200164023A1, “METHODS FOR PREVENTING AND TREATING INTRA-ABDOMINAL CANDIDIASIS” (Cidara Therapeutics, Inc., priority 2017, published 2020).

Consider `CCCCCOc1ccc(-c2cc(-c3ccc(C(=O)N[C@H]4C[C@@H](O)[C@@H](O)NC(=O)[C@@H]5[C@@H](O)[C@@H](C)CN5C(=O)[C@H]([C@H](O)CC(N)=O)NC(=O)[C@H]([C@H](O)[C@@H](O)c5ccc(O)c(OS(=O)(=O)O)c5)NC(=O)[C@@H]5C[C@@H](O)CN5C(=O)[C@H]([C@@H](C)O)NC4=O)cc3)no2)cc1` [micafungin] (X1-[Orn(4R-OH,5R-OH)]T[Hyp][hTyr(3S-OH,4S-OH,3'-OSO3H)][Gln(3R-OH)][Pro(3S-OH,4S-Me)]; lactam 1-C), for which the “drug level in liver lesions” value (5 mg/kg once daily, 24 hours post third dose (steady-state)) is recorded as “under 5 μg/ml”. Moreover, the concentration at 24 h reads like this: (5 mg/kg once daily, 24 hours post second dose, read-out: drug level in liver lesions) 3500 ng/mL; (5 mg/kg once daily, 24 hours post third dose (steady-state), read-out: drug level in liver lesions) 4900 ng/mL; (5 mg/kg once daily, steady-state after three doses, read-out: drug level in surrounding non-lesion liver tissues) 500 ng/mL; (ip, single IP dose 5 mg/kg, 24 hours post-dose, read-out: drug concentration in liver lesions) 3400 ng/mL; (ip, single IP dose 5 mg/kg, 24 hours post-dose, read-out: drug concentration in uninvolved surrounding liver tissue) 1000 ng/mL. Further, the concentration at 6 h runs as follows: (ip, single IP dose 5 mg/kg, read-out: drug concentration in liver lesions) 4900 ng/mL; (ip, single IP dose 5 mg/kg, read-out: drug concentration in uninvolved surrounding liver tissue) 6500 ng/mL.
